Experimental data from patent US20250032575A1, “USE OF A MURAMYL PEPTIDE IN THE TREATMENT OF SKELETAL GROWTH RETARDATION” (UNIVERSITE CLAUDE BERNARD LYON 1, priority 2021, published 2025).

Experiments:
Format in all cases: in vivo, mice
[1] = tested on: chronically undernourished mouse model; experiment: body length (nose-anus) growth in chronically undernourished mouse model; settings: for growth rate / relative growth (% length gain, day 21 = 100%) / total height: male mice on low-protein, low-fat diet, day 21 to 56, oral, 5 times a week, vs placebo; for skeletal growth (linear or longitudinal): summary of examples 1 and 2, oral administration, juvenile mice on protein-deficient diet mimicking chronic undernutrition
Experimental: (§1) Conventional C57B1/6j laboratory mice have been bred in the Gnotobiology Laboratory for more than 10 generations. Mice have been maintained in IVC cages (Tecniplast, Italy), exposed to 12:12 h light-dark cycles, supplied with tap water and fed ad libitum with sterile diet V1124-300 (Ssniff Spezialdiaten GmbH) (irradiated −25 kGy, Bioster, Czech Republic). The mice have been mated and after delivery, the litter size was reduced to 6 pups per mother. On day 21, male mice have been weaned on the experimental low-protein, low-fat diet (3.5 kcal/gram, protein: 4.1 wt %, carbohydrate: 78 wt %, fat: 2 wt %) and regularly monitored until 56 days after birth (adult age in mice). Mice weaned on the low-protein, low-fat diet have been treated 5 times a week with placebo, composition A containing MDP or composition B containing Murabutide. At the end of the experiment, food and bedding were removed at 8 am and the mice have been sacrificed after 5 hours of fasting by isoflurane inhalation and cervical dislocation. All animals have been sacrificed within one hour between 1 and 2 p.m.
(§2) The daily treatment dose was 30 μL placebo or for MDP 25 μg in 30 μL placebo and for murabutide 28 μg in 30 μL placebo. Each of the compositions has been administered by pipette to the mouse's tongue. The mouse has been maintained until the composition had been swallowed completely.
(§3) To measure body length, the mice have briefly been anaesthetised with isoflurane (Piramal Healthcare, UK). The anaesthetised mouse has been held by the tail and the nose-anus length has been measured using a ruler. Relative length has been calculated as % length gain, where body length at day 21 (weaning) has been set to 100%. The length growth rate has been calculated by dividing the absolute length gain from day 21 to day 56 by the number of days (i.e. 35). Femur and tibia bones have been dissected at sacrifice, fixed in 4% paraformaldehyde—PBS overnight at 4° C., washed with PBS and preserved in 70% ethanol. Bone length has been measured using a digital caliper (Festa).
Conventional C57B1/6j laboratory mice have been bred in the Gnotobiology Laboratory for more than 10 generations. Mice have been maintained in IVC cages (Tecniplast, Italy), exposed to 12:12 h light-dark cycles, supplied with tap water and fed ad libitum with sterile diet V1124-300 (Ssniff Spezialdiäten GmbH) (irradiated −25 kGy, Bioster, Czech Republic). The mice have been mated and after delivery the litter size was reduced to 6 pups per mother. On day 21, male mice have been weaned on the experimental low-protein, low-fat diet (3.5 kcal/gram, protein: 4.1 wt %, carbohydrate: 78 wt %, fat: 2 wt %) and monitored regularly for up to 56 days after birth. Mice weaned on the low-protein, low-fat diet have been treated 5 times a week with either the placebo composition or the composition comprising mifamurtide as prepared in point 1.1 above. At the end of the experiment, the food and bedding were removed at 8 a.m. and the mice have been sacrificed after 5 hours of fasting by isoflurane inhalation and cervical dislocation. All animals have been sacrificed within one hour between 1 and 2 p.m.
Each of the compositions has been administered by pipette to the tongue of the mouse. The mouse has been held until the composition had been swallowed completely.
The tests were carried out on male mice with each of the above compositions P, A, AB and B, according to the protocol indicated in example 1, point 1.1 above (56-day period).
The daily treatment dose was 30 μL of composition P (Placebo) or 25 μg MDP alone in 30 μL of placebo (composition A), or 25 μg MDP and 2.10^8 CFU of Lactiplantibacillus plantarum strain WJL bacteria in 30 μL of placebo (composition AB) or 2.10^8 CFU of Lactiplantibacillus plantarum strain WJL bacteria in 30 μL of placebo (composition B). […]

[2] = tested on: IGF-1; experiment: circulating IGF-1 level in serum, Mouse/Rat IGF-1 Quantikine ELISA; settings: serum at day 56, oral, vs placebo
Experimental: Conventional C57B1/6j laboratory mice have been bred in the Gnotobiology Laboratory for more than 10 generations. Mice have been maintained in IVC cages (Tecniplast, Italy), exposed to 12:12 h light-dark cycles, supplied with tap water and fed ad libitum with sterile diet V1124-300 (Ssniff Spezialdiaten GmbH) (irradiated −25 kGy, Bioster, Czech Republic). The mice have been mated and after delivery, the litter size was reduced to 6 pups per mother. On day 21, male mice have been weaned on the experimental low-protein, low-fat diet (3.5 kcal/gram, protein: 4.1 wt %, carbohydrate: 78 wt %, fat: 2 wt %) and regularly monitored until 56 days after birth (adult age in mice). […]
At the end of the experiment, the blood has been collected and left to coagulate at room temperature for 2 hours. […] IGF-1 levels have been measured using the Mouse/Rat IGF-1 Quantikine ELISA kit (R&D systems) according to the manufacturer's instructions. Data have been analysed using the following statistical test: One way ANOVA with Tukey's multiple comparisons test.
Conventional C57B1/6j laboratory mice have been bred in the Gnotobiology Laboratory for more than 10 generations. […] On day 21, male mice have been weaned on the experimental low-protein, low-fat diet (3.5 kcal/gram, protein: 4.1 wt %, carbohydrate: 78 wt %, fat: 2 wt %) and monitored regularly for up to 56 days after birth. […]

[3] = tested on: chronically undernourished mouse model; experiment: femur and tibia bone length in chronically undernourished mouse model; settings: at sacrifice day 56, oral, vs placebo
Experimental: as §1, §2, §3
Conventional C57B1/6j laboratory mice have been bred in the Gnotobiology Laboratory for more than 10 generations. Mice have been maintained in IVC cages (Tecniplast, Italy), exposed to 12:12 h light-dark cycles, supplied with tap water and fed ad libitum with sterile diet V1124-300 (Ssniff Spezialdiäten GmbH) (irradiated −25 kGy, Bioster, Czech Republic). The mice have been mated and after delivery the litter size was reduced to 6 pups per mother. On day 21, male mice have been weaned on the experimental low-protein, low-fat diet (3.5 kcal/gram, protein: 4.1 wt %, carbohydrate: 78 wt %, fat: 2 wt %) and monitored regularly for up to 56 days after birth. […]

[4] = Example 1, MDP 25 μg or murabutide 28 μg in 30 μL
[5] = Example 1, 5 times a week, MDP 25 μg or murabutide 28 μg in 30 μL
[6] = Example 2, Mifamurtide 62.5 μg/day in 30 μL

Row | Molecule | growth rate [1, 4] | relative growth (% length gain, day 21 = 100%) [1, 4] | total height [1, 4] | skeletal growth (linear or longitudinal) [1] | circulating IGF1 level [2, 5] | femur size [3, 5] | length of the tibia [3, 5] | growth rate [1, 6] | relative growth (% length gain, day 21 = 100%) [1, 6] | total height [1, 6] | circulating IGF1 level [2, 6] | size of the femur [3, 6] | size of the tibia [3, 6]
1 | CCCCOC(=O)[C@@H](CCC(N)=O)NC(=O)[C@H](C)NC(=O)[C@@H](C)O[C@H]1[C@H](O)[C@@H](CO)OC(O)[C@@H]1NC(C)=O (some centres unmarked) [murabutide, muramyl dipeptide butyl ester] | significantly increased | significantly increased | significantly increased | positive effect | significantly increased | positive trend in murabutide treatment that did not reach statistical significance | positive trend of increased growth |  |  |  |  |  | 
2 | muramyl tripeptide phosphatidyl ethanolamine [Mifamurtide] |  |  |  | positive effect |  |  |  | significantly increased | significantly increased | significantly increased | significantly increased | significantly increased | significantly increased
